{"source": "patent US20220064167A1", "about": "“IMIDAZO-PYRAZOLE CARBOXAMIDE DERIVATIVES AS ANTICANCER AGENTS AND THE SYNTHESIS THEREOF” (AVIDIN KFT., priority 2018, published 2022)", "data": [{"compound": "Cc1nn2c(NC(C)(C)CC(C)(C)C)c(C(C)(C)C)[nH]c2c1C(=O)Nc1ccc(F)cc1", "note": "[Example 74, 2-(Tert-butyl)-N-(4-fluorophenyl)-6-methyl-3-((2,4,4-trimethylpentan-2-yl)amino)-1H-imidazo[1,2-b]pyrazole-7-carboxamide]", "values": [{"measurement": "melting point", "value": 179, "unit": "°C"}]}, {"compound": "NC(=O)c1cnn2c(NC3CCCCC3)c(-c3ccccc3)[nH]c12", "note": "[Example 4, 3-(Cyclohexylamino)-2-phenyl-1H-imidazo[1,2-b]pyrazole-7-carboxamide]", "values": [{"measurement": "melting point", "value": "240 to 241", "unit": "°C"}]}, {"compound": "COC(=O)CNc1c(-c2ccccc2)[nH]c2c(C(N)=O)cnn12", "note": "[Example 3, Methyl 2-((7-carbamoyl-2-phenyl-1H-imidazo[1,2-b]pyrazol-3-yl)amino)acetate]", "values": [{"measurement": "melting point", "value": "209 to 210", "unit": "°C"}]}, {"compound": "COc1ccc(NC(=O)c2cnn3c(NC(C)(C)CC(C)(C)C)c(C(C)(C)C)[nH]c23)c(OC)c1", "note": "[Example 44, 2-(Tert-butyl)-N-(2,4-dimethoxyphenyl)-3-((2,4,4-trimethylpentan-2-yl)amino)-1H-imidazo[1,2-b]pyrazole-7-carboxamide]", "values": [{"measurement": "melting point", "value": 127, "unit": "°C"}]}, {"compound": "COc1ccc(Nc2c(-c3ccccc3)[nH]c3c(C(N)=O)cnn23)cc1", "note": "[Example 5, 3-((4-Methoxyphenyl)amino)-2-phenyl-1H-imidazo[1,2-b]pyrazole-7-carboxamide]", "values": [{"measurement": "melting point", "value": "229 to 231", "unit": "°C"}]}, {"compound": "CC(C)(C)Nc1c(-c2ccc(F)c(F)c2)[nH]c2c(C(N)=O)cnn12", "note": "[Example 13, 3-(Tert-butylamino)-2-(3,4-difluorophenyl)-1H-imidazo[1,2-b]pyrazole-7-carboxamide]", "values": [{"measurement": "melting point", "value": "256 to 258", "unit": "°C"}]}, {"compound": "COC(=O)CNc1c(-c2c(OC)cc(OC)cc2OC)[nH]c2c(C(N)=O)cnn12", "note": "[Example 9, Methyl 2-((7-carbamoyl-2-(2,4,6-trimethoxyphenyl)-1H-imidazo[1,2-b]pyrazol-3-yl)amino)acetate]", "values": [{"measurement": "melting point", "value": "226 to 227", "unit": "°C"}]}, {"compound": "CC(C)(C)CC(C)(C)Nc1c(C(C)(C)C)[nH]c2c(C(=O)Nc3ccccc3C(F)(F)F)cnn12", "note": "[Example 45, 2-(Tert-butyl)-N-(2-(trifluoromethyl)phenyl)-3-((2,4,4-trimethylpentan-2-yl)amino)-1H-imidazo[1,2-b]pyrazole-7-carboxamide]", "values": [{"measurement": "melting point", "value": 106, "unit": "°C"}]}, {"compound": "CC(C)(C)CC(C)(C)Nc1c(C(C)(C)C)[nH]c2c(C(=O)NCc3ccc(F)cc3)cnn12", "note": "[Example 71, 2-(Tert-butyl)-N-(4-fluorobenzyl)-3-((2,4,4-trimethylpentan-2-yl)amino)-1H-imidazo[1,2-b]pyrazole-7-carboxamide]", "values": [{"measurement": "melting point", "value": "163 to 164", "unit": "°C"}]}, {"compound": "CC(C)(C)CC(C)(C)Nc1c(-c2cccnc2)[nH]c2c(C(N)=O)cnn12", "note": "[Example 14, 2-(Pyridin-3-yl)-3-((2,4,4-trimethylpentan-2-yl)amino)-1H-imidazo[1,2-b]pyrazole-7-carboxamide]", "values": [{"measurement": "melting point", "value": "226 to 228", "unit": "°C"}]}, {"compound": "CCCCCCCc1[nH]c2c(C(N)=O)cnn2c1NC(C)(C)C", "note": "[Example 17, 3-(Tert-butylamino)-2-heptyl-1H-imidazo[1,2-b]pyrazole-7-carboxamide]", "values": [{"measurement": "melting point", "value": "203 to 204", "unit": "°C"}]}, {"compound": "CC(C)c1ccc(NC(=O)c2cnn3c(NC(C)(C)CC(C)(C)C)c(C(C)(C)C)[nH]c23)cc1", "note": "[Example 42, 2-(Tert-butyl)-N-(4-isopropylphenyl)-3-((2,4,4-trimethylpentan-2-yl)amino)-1H-imidazo[1,2-b]pyrazole-7-carboxamide]", "values": [{"measurement": "melting point", "value": "155 to 156", "unit": "°C"}]}, {"compound": "Cc1cc(C)cc(NC(=O)c2cnn3c(NC(C)(C)CC(C)(C)C)c(C(C)(C)C)[nH]c23)c1", "note": "[Example 41, 2-(Tert-butyl)-N-(3,5-dimethylphenyl)-3-((2,4,4-trimethylpentan-2-yl)amino)-1H-imidazo[1,2-b]pyrazole-7-carboxamide]", "values": [{"measurement": "melting point", "value": "180 to 181", "unit": "°C"}]}, {"compound": "CC(C)(C)CC(C)(C)Nc1c(C(C)(C)C)[nH]c2c(C(=O)Nc3ccc(F)nc3)cnn12", "note": "[Example 73, 2-(Tert-butyl)-N-(6-fluoropyridin-3-yl)-3-((2,4,4-trimethylpentan-2-yl)amino)-1H-imidazo[1,2-b]pyrazole-7-carboxamide]", "values": [{"measurement": "melting point", "value": "177 to 178", "unit": "°C"}]}]}
